The values below come from patent US20110118220A1, “Composition of bifonazole and its use” (priority 2009, published 2011).

Molecules are shown by their SMILES.

The subject of series [1] is filamentous fungi represented by Trichophyton rubrum. Put plainly: In vitro antifungal activity (MIC), filamentous fungi. Format: cell-based.
Text: (§1) To understand the in vivo and in vitro antibacterial effects, and to determine the in vivo and in vitro antibacterial activity through measuring the compound Bifonazole cream (Bifonazole/Triamcinolone acetonide acetate) on common pathogenic fungi of the minimum inhibitory concentration (MIC).
Series [2] relates to candida such as candida Albicans. In words: In vitro antifungal activity (MIC), candida. In kind it is cell-based.
Text: as §1
Series [3] relates to 543 common fungi. In words: In vitro pharmacodynamics of nine antifungal agents against 543 common fungi. Format: cell-based.
Text: as §1
Series [4] in a line: Long-term toxicity study by skin exposure. In kind it is in vivo, rats. Particulars: rat. The source says:
Observe the abnormal reaction and degree of reversibility of the reaction caused by skin penetration through long-term exposure the animal's skin to subject drug.

A short description of series [5]: Allergy study (repeated skin contact). In kind it is in vivo. An excerpt: Observe the immune system response on skin after repeating skin contact animal skin with testing object.

Regarding `c1ccc(-c2ccc(C(c3ccccc3)n3ccnc3)cc2)cc1` (stereo not shown) [Bifonazole], the “antibacterial activity on filamentous fungi” value in series [1] is recorded as “strong antibacterial activity”. Moreover, the “antibacterial activity on candida” value in series [2] is “a certain antibacterial activity”. The “antimicrobial activity against common fungal skin infections compared with econazole, ketoconazole, clotrimazole and miconazole” value in series [3] is listed as “slightly stronger”. Besides, the “minimum toxic dosage on main target organ (liver)” value in series [4] amounted to 2 g/kg.

`O=[N+]([O-])c1ccc(Cl)c([N+](=O)[O-])c1` [2,4-dinitro-chlorobenzene]: the average response in series [5] (24 hours) turned out to be 2.4; in series [5] (48 hours), 2.7; in series [5] (72 hours), 2.9; in series [5] (by instance), 2.4. The allergenic rate in series [5] (in vivo) was 100%. Besides, the erythema and edema in series [5] (in vivo) was 10 animals all have erythema and edema.
